Experimental data published in US9642361B2, “Method for changing the development pattern, increasing the growth and the accumulation of starch, changing the structure of starch and increasing the resistance to water stress in plants” (IDEN BIOTECHNOLOGY, S.L., priority 2010, dated 2017).

Columns and labels:
[1] = tested on: leaves cut from Arabidopsis; experiment: Starch accumulation in cut Arabidopsis leaves with transcription/translation inhibitors in presence of fungal volatiles; assay type: in vivo, Arabidopsis thaliana; conditions: 50 μM cycloheximide or 200 μM cordycepin; after 2 hours of incubation
Procedure: The experiment of section 5.1 was repeated, using in this case leaves cut from Arabidopsis incubated in Petri dishes with solid MS medium supplemented with 90 mM sucrose and, where appropriate, with 50 micromoles (μM) of translation inhibitor cycloheximide (Sigma) and 200 micromoles (μM) of transcription inhibitor cordycepin (Sigma) (Fritz, C. C. et al., 1991: Proc. Natl. Acad. Sci. USA 88: 4458-4462; Hayashi, T. and Takagi, S., 2003; Plant Cell Physiol. 44: 1027-1036; Dhonukshe et al., 2006: Developmental Cell 10: 137-150). The dishes were deposited in 500 cubic centimeter boxes in which cultures of Alternaria alternata had previously been deposited.

[2] = tested on: Arabidopsis thaliana plants; experiment: Starch content in leaves of Arabidopsis plants cultured next to solutions of volatile compounds; assay type: in vivo; conditions: for starch accumulation in leaves: 2 cubic centimeters of 5% aqueous solution in 500 cubic centimeter box, two days
Procedure: To that end, the plants were cultured in Petri dishes containing solid MS medium with 90 mM sucrose. The plants germinated and were grown for two weeks in growth chambers with a photoperiod of 16 h of light (300 μmol of photons s^−1 m^−2) and at a constant temperature of 24° C.
The Petri dishes containing completely developed plants were placed in 500 cubic centimeter grow boxes with the particularity that, instead of microbial cultures, […] were introduced in said boxes in each case: indol, DTT (dithiothreitol), NAA (1-naphthaleneacetic acid), β-mercaptoethanol, salicylic acid, jasmonic acid, cysteine, acetoin, ethanol, methanol, β-hydroxybutyrate, butanediol, propanoic acid, acetic acid, acetaldehyde, formic acid or butyric acid, without there being any physical contact between the plant and the solution. The ethylene was provided in the form of ethephon powders. The boxes were sealed and leaves were harvested after two days of incubation to analyze starch content. Leaves were harvested at the end of the light period. As a negative control, the Petri dishes containing completely developed plants were cultured for two days in sealed plastic boxes together with a Petri dish containing 2 cubic centimeters of water in the absence of any of the volatile compounds assayed.
Starch was measured using an amyloglucosidase-based test kit (Boehringer Mannheim, Germany).

detached potato leaves = experiment: Starch content in detached potato leaves with added amino acids, with or without FVs; assay type: in vivo, Solanum tuberosum; conditions: exogenously added amino acid, +FV, 2 days
Procedure: FIG. 19: Graph depicting the starch content (expressed as μmoles of glucose per gram of fresh weight) measured in potato plants cultured for 2 days in MS supplemented with 90 mM sucrose and the indicated concentrations of cysteine, glycine, serine and methionine in the absence (−FV) or in the presence (+FV) of volatiles emitted by A. alternata grown in solid MS medium supplemented with 90 mM sucrose.
Therefore, it was investigated whether plastidial cysteine provision impairments are directly involved in MIVOISAP by measuring the starch content in detached potato leaves cultured in the presence and in the absence of FVs emitted by Alternaria alternata, and in the presence of different concentrations of cysteine.

Row | SMILES | starch accumulation in leaves [2] | other results
1 | Nc1ncnc2c1ncn2[C@@H]1O[C@H](CO)C[C@H]1O [cordycepin] |  | starch accumulation in presence of fungal volatiles [1]: strongly inhibit starch accumulation
2 | CC=O [acetaldehyde] | promote starch overaccumulation | 
3 | N[C@@H](CS)C(=O)O [cysteine] |  | MIVOISAP (starch content) in detached leaves (detached potato leaves): strongly suppressed
4 | CC(=O)O [acetic acid] | promote starch overaccumulation | 
5 | O=CO [formic acid] | promote starch overaccumulation | dose dependence of the effect on starch accumulation ([2]; solutions at 1%, 2% or 5% (v/v)): dose-dependent
6 | CCC(=O)O [propanoic acid] | promote starch overaccumulation | 
7 | CCCC(=O)O [butyric acid] | promote starch overaccumulation | 
8 | C[C@@H]1C[C@@H]([C@H](O)CC2CC(=O)NC(=O)C2)C(=O)[C@@H](C)C1 [cycloheximide] |  | starch accumulation in presence of fungal volatiles [1]: strongly inhibit starch accumulation
